Measurements reported in ChEMBL document CHEMBL4477227, “Synthesis and antibacterial evaluation of macrocyclic diarylheptanoid derivatives” (Bioorg Med Chem Lett, 2016).
Values after ≈ are worked out from the molar mass of the structure shown.

Experiments:
Pseudomonas aeruginosa = experiment: Antibacterial activity against Pseudomonas aeruginosa PAO1 by microbroth dilution method; type: functional
Proteus vulgaris = experiment: Antibacterial activity against Proteus vulgaris ATCC 33420 by microbroth dilution method; type: functional
Burkholderia cepacia = experiment: Antibacterial activity against Burkholderia cepacia ATCC 25416 by microbroth dilution method; type: functional
Staphylococcus aureus [1] = experiment: Antibacterial activity against methicillin-resistant Staphylococcus aureus NRS70 by microbroth dilution method; type: functional
Acinetobacter baumannii = experiment: Antibacterial activity against Acinetobacter baumannii ATCC 19606 by microbroth dilution method; type: functional, ATCC 19606 = CIP 70.34 = JCM 6841
Proteus mirabilis = experiment: Antibacterial activity against Proteus mirabilis ATCC 25933 by microbroth dilution method; type: functional
[2] = test system: Mycobacterium tuberculosis; experiment: Antitubercular activity against Mycobacterium tuberculosis H37Rv by microbroth dilution method; type: functional
Streptococcus pneumoniae = experiment: Antibacterial activity against Streptococcus pneumoniae R6 by microbroth dilution method; type: functional
Bacillus subtilis = experiment: Antibacterial activity against Bacillus subtilis ATCC 23857 by microbroth dilution method; type: functional
Bacillus anthracis = experiment: Antibacterial activity against Bacillus anthracis Sterne 34F2 by microbroth dilution method; type: functional
Escherichia coli [3] = experiment: Antibacterial activity against Escherichia coli K-12 by microbroth dilution method; type: functional
Escherichia coli [4] = experiment: Antibacterial activity against Escherichia coli harboring TolC deletion mutant by microbroth dilution method; type: functional
Staphylococcus aureus [5] = experiment: Antibacterial activity against methicillin-sensitive Staphylococcus aureus ATCC 29213 by microbroth dilution method; type: functional
Streptococcus pyogenes = experiment: Antibacterial activity against Streptococcus pyogenes ATCC 700294 by microbroth dilution method; type: functional
Klebsiella pneumoniae = experiment: Antibacterial activity against Klebsiella pneumoniae ATCC 33495 by microbroth dilution method; type: functional
Enterococcus faecalis = experiment: Antibacterial activity against Enterococcus faecalis ATCC 33186 by microbroth dilution method; type: functional
[6] = Staphylococcus aureus, NRS70, read-out: MIC
[7] = Acinetobacter baumannii, ATCC 19606 = CIP 70.34 = JCM 6841, read-out: MIC
[8] = Mycobacterium tuberculosis, H37Rv, read-out: MIC
[9] = Streptococcus pneumoniae, R6, read-out: MIC
[10] = Bacillus subtilis, ATCC 23857, read-out: MIC
[11] = Bacillus anthracis, Sterne 34F2, read-out: MIC
[12] = Escherichia coli, read-out: MIC
[13] = Staphylococcus aureus, ATCC 29213, read-out: MIC
[14] = Streptococcus pyogenes, ATCC 700294, read-out: MIC
[15] = Enterococcus faecalis, ATCC 33186, read-out: MIC

| Compound | MIC (Pseudomonas aeruginosa) | MIC (Proteus vulgaris) | MIC (Burkholderia cepacia) | MIC (Staphylococcus aureus [1]; [6]) | MIC (Acinetobacter baumannii; [7]) | MIC (Proteus mirabilis) | MIC [2, 8] | MIC (Streptococcus pneumoniae; [9]) | MIC (Bacillus subtilis; [10]) | MIC (Bacillus anthracis; [11]) | MIC (Escherichia coli [3]) | MIC (Escherichia coli [4]; [12]) | MIC (Staphylococcus aureus [5]; [13]) | MIC (Streptococcus pyogenes; [14]) | MIC (Klebsiella pneumoniae) | MIC (Enterococcus faecalis; [15]) | MIC (Bacillus subtilis) | MIC (Escherichia coli [4]) | further results |
| --- | --- | --- | --- | --- | --- | --- | --- | --- | --- | --- | --- | --- | --- | --- | --- | --- | --- | --- | --- |
| COc1ccc2cc1Oc1cc(ccc1OC)CCC(NCCN(C)C)CCCC2 (stereo unspecified) | > 100 µg/mL | > 100 µg/mL | > 100 µg/mL | > 100 µg/mL | > 100 µg/mL | > 100 µg/mL | 100 µg/mL (≈ 242 µM) | > 100 µg/mL | 100 µg/mL (≈ 242 µM) | > 100 µg/mL | > 100 µg/mL | > 100 µg/mL | > 100 µg/mL | > 100 µg/mL | > 100 µg/mL | > 100 µg/mL | – | – | – |
| COc1ccc2cc1Oc1cc(ccc1OC)CCC(NCc1ccccc1)CCCC2 (stereo unspecified) | – | – | – | – | – | – | 12.5 to 50 µg/mL (≈ 29 to 116 µM) | – | – | – | – | – | – | – | – | – | – | – | – |
| COc1ccc2cc1Oc1cc(ccc1OC)CCC(NCc1ccc(C(F)(F)F)cc1)CCCC2 (stereo unspecified) | > 100 µg/mL | > 100 µg/mL | > 100 µg/mL | 12.5 µg/mL (≈ 25 µM) | > 100 µg/mL | > 100 µg/mL | 25 µg/mL (≈ 50 µM) | > 100 µg/mL | 12.5 µg/mL (≈ 25 µM) | 12.5 µg/mL (≈ 25 µM) | > 100 µg/mL | 6.25 µg/mL (≈ 12.5 µM) | > 100 µg/mL | 50 µg/mL (≈ 100 µM) | > 100 µg/mL | > 100 µg/mL | – | – | – |
| COc1ccc2cc1Oc1cc(ccc1OC)CCC(NCCc1ccccc1)CCCC2 (stereo unspecified) | – | – | – | – | – | – | 12.5 to 50 µg/mL (≈ 28.1 to 112 µM) | – | – | – | – | – | – | – | – | – | – | – | – |
| COc1ccc2cc1Oc1cc(ccc1OC)CCC(N[C@@H]1CCCc3ccccc31)CCCC2 (stereo in doubt; 25) | > 100 µg/mL | > 100 µg/mL | > 100 µg/mL | – | – | > 100 µg/mL | > 100 µg/mL | – | – | – | > 100 µg/mL | – | > 100 µg/mL | – | > 100 µg/mL | – | 6.25 µg/mL (≈ 13.3 µM) | 100 µg/mL (≈ 212 µM) | – |
| COc1ccc2cc1Oc1cc(ccc1OC)CCC(N[C@@H]1CCCc3ccccc31)CCCC2 (stereo in doubt; 26) | – | – | – | – | – | – | – | – | – | – | – | – | – | – | – | – | 25 µg/mL (≈ 53 µM) | 25 µg/mL (≈ 53 µM) | MIC (Acinetobacter baumannii): >100 µg/mL; MIC [2]: 50 µg/mL (≈ 106 µM); MIC (Streptococcus pneumoniae): 50 µg/mL (≈ 106 µM) |
| COc1ccc2cc1Oc1cc(ccc1OC)CCC(N[C@H]1CCCc3ccccc31)CCCC2 (stereo in doubt; 27) | > 100 µg/mL | > 100 µg/mL | > 100 µg/mL | > 100 µg/mL | > 100 µg/mL | > 100 µg/mL | – | > 100 µg/mL | > 100 µg/mL | > 100 µg/mL | > 100 µg/mL | – | – | > 100 µg/mL | > 100 µg/mL | > 100 µg/mL | – | >100 µg/mL | – |
| COc1ccc2cc1Oc1cc(ccc1OC)CCC(N[C@H]1CCCc3ccccc31)CCCC2 (stereo in doubt; 28) | – | – | – | – | – | – | – | – | – | – | – | – | – | – | – | – | >100 µg/mL | 25 µg/mL (≈ 53 µM) | MIC (Staphylococcus aureus [1]): >100 µg/mL; MIC (Streptococcus pneumoniae): >100 µg/mL; MIC (Bacillus anthracis): >100 µg/mL; MIC (Staphylococcus aureus [5]): >100 µg/mL; MIC (Streptococcus pyogenes): >100 µg/mL; MIC (Enterococcus faecalis): >100 µg/mL |
| O=C(N[C@H](CO)[C@H](O)c1ccc([N+](=O)[O-])cc1)C(Cl)Cl [CHLORAMPHENICOL] | > 100 µg/mL | > 100 µg/mL | > 100 µg/mL | 3.12 µg/mL (≈ 9.67 µM) | 50 µg/mL (≈ 155 µM) | > 100 µg/mL | – | 1.56 µg/mL (≈ 4.83 µM) | 6.25 µg/mL (≈ 19.3 µM) | 3.12 µg/mL (≈ 9.67 µM) | 6.25 µg/mL (≈ 19.3 µM) | 0.78 µg/mL (≈ 2.41 µM) | 6.25 µg/mL (≈ 19.3 µM) | 3.12 µg/mL (≈ 9.67 µM) | > 100 µg/mL | – | – | – | – |
| NNC(=O)c1ccncc1 [ISONIAZID] | – | – | – | – | – | – | 0.03 µg/mL (≈ 0.219 µM) | – | – | – | – | – | – | – | – | – | – | – | – |
